Measurements published in patent US20220249463A1, “METHODS OF ALTERING CARDIAC REMODELING USING COMPOUNDS THAT PROMOTE GLUCOSE OXIDATION” (IMBRIA PHARMACEUTICALS, INC., priority 2019, published 2022).

System: TAC mice
Assay: TAC mice: cardiac fibrosis, Masson's trichrome
Assay type: in vivo
Settings: end of 6-week experiment

COc1ccc(CN2CCN(CCOC(=O)c3cccnc3)CC2)c(OC)c1OC [CV-8972, 2-(4-(2,3,4-trimethoxybenzyl)piperazin-1-yl)ethyl nicotinate]
cardiac fibrosis (fibrotic area to whole heart tissue area): 6.6±0.6%
